We go through seven compounds from patent publication US11261210B2, “Glycosylated antitumor ether lipids as novel cancer stem cell cytotoxic agents” (UNIVERSITY OF MANITOBA, priority 2012, dated 2022).

The structures appear in SMILES notation.

Data set [1] has as its system BT-474 stem cell tumorspheres. Kind of data set: Viability of BT-474 stem cell tumorspheres (MTS assay). The data set is classed as cell-based, human. The conditions noted are these: for Viability (% 0f control) / loss of viability / toxicity against the cancer stem cells: 6 days; for Viability (% 0f control): Table 2; for toxicity against the cancer stem cells: BT-474 spheroids. The protocol: FIG. 6. Effect of β-O-Gln, α-O-Gln, β-C-Gln and ET-18-OCH3 on the viability of BT-474 stem cell tumorspheres. BT-474 cancer stem cells were grown for 7 days in ultra low adhesion 6 well plates. The tumorspheres formed were harvested, trypsinised and cell numbers were determined. Equal numbers of cells were dispersed into 48-well plates in mammocult medium and incubation was under static conditions. Wells with only medium but no cells were treated in an identical manner to serve as blanks. After spheres were formed, β-O-Gln, α-O-Gln, β-C-Gln or ET-18-OCH3 (0, 10, 20, 30 μM) were added and incubation was for a total of 6 days. At the end of the incubation, the MTS reagent was added to each well and the plates were rotated on a Nutator mixer in a 5% CO2 incubator for 4 h. The absorbance of each well was read at 470 nm. The results are the means±standard deviation of 4 independent determinations.
(§1) Cell viability assay: Cell viability was determined by the Cell Titre 96 Aqueous One solution proliferation assay ((MTS assay; Promega) according to the instructions of the manufacturer.
The viability of the material at the end of the incubation was determined using the MTS assay. […] In cells incubated with 10 μM of β-C-Gln, 90% of the cells were not viable. […] In contrast, in experiments with ET-18-OCH3, 10 or 20 μM ET-18-OCH3 had little effect on the viability of BT-474 spheroids and at a concentration of 30 μM viability was around 45% relative to controls. The results of the integrity studies correlate well with the viability studies.
We also investigated the effect of α-O-Galn, β-O-Galn or α-O-Mann on the viability of BT-474 spheroids. The spheroids were incubated with the compounds for 6 days and the viability was assessed by the MTS assay. […] Viability was down to around 10% at 10 μM concentration of the compound. […] At a concentration of 30 μM a significant proportion (26-32%) of the BT-474 cancer stem cells were still viable. The cytotoxic efficacy of GAELs is dependent on the type of sugar moiety and the anomeric form in some instances.
Background: Tetrazolium dyes change colour on reduction, which living cells bring about.

Data set [2] relates to JIMT1 stem cell tumorspheres. Kind of data set: Viability of JIMT1 stem cell tumorspheres (MTS assay). The data set is classed as cell-based, human. As to conditions: 6 days. As for the experimental part:
FIG. 8. Effect of β-O-Gln, α-O-Gln, β-C-Gln and ET-18-OCH3 on the viability of JIMT1 stem cell tumorspheres. BT-474 cancer stem cells were grown for 7 days in ultra low adhesion 6-well plates. The tumorspheres formed were harvested, trypsinised and cell numbers were determined. Equal numbers of cells were dispersed into 48-well non-treated plates in mammocult medium and incubation was under static conditions. Wells with only medium but no cells were treated in an identical manner to serve as blanks. After spheres were formed, O-Gln, C-Gln or ET-18-OCH3 (0, 10, 20, 30 μM) were added and incubation was for a total of 6 days. At the end of the incubation, the MTS reagent was added to each well and the plates were mixed in a nutator in a 5% CO2 incubator for 4 h. The absorbance of each well was read at 470 nm. The results are the means±standard deviation of 4 independent determinations.
as §1
The viability of cells in spheroids incubated with 20 or 30 μM ET-18-OCH3 was between 30-40% of controls.

The next data set deals with cancer cell lines. The conditions noted are these: Xu et al., ChemMedChem in press; cited from earlier work.
In a further data set the test system is cancer stem cells. Kind of data set: Tumorsphere formation by freshly sorted cancer stem cells. The conditions noted are these: added to freshly sorted cancer stem cells, 10 μM and above, 6 days. The data set is classed as cell-based, human. From the text:
Breast cancer stem cell enriched cell population was obtained by staining breast cancer cell lines BT-474 and JIMT-1 for aldehyde dehydrogenase 1 (ALDH1) using the assay kit from Stem Cell Technologies (Vancouver BC, Canada) according to the instructions of the manufacturer with the appropriate controls. BT-474 is a ductal carcinoma cell line (Lasfargues E Y, Coutinho W G, Dion A S (1979) A human breast tumor cell line (BT-474) that supports mouse mammary tumor virus replication. In Vitro 15, 723-729) while JIMT-1 is a carcinoma cell line that is resistant to herceptin (Tanner M, Kapanen A J, Junttila T, Raheem O, Grenman S, Elo J, Elenius K, Isola J (2004). Characterization of a novel cell line established from a patient with herceptin-resistant breast cancer. Mol Cancer Ther 3, 1585-1592). Following the staining, the cells stained for ALDH1 were sorted from the bulk population by flow cytometry on a 4 laser MoFloXPP high speed/pressure cell sorter. The cells were pelleted by centrifugation, resuspended in supplemented Mammocult medium (Stem Cell Technologies) and dispersed into ultra-low adhesive 6-well plates or 35 mm dishes for 7 days to allow the formation of spheroids (mammospheres). After 7 days, the spheres were separated from single cells (dead non-stem cells) by sieving the contents of the well through a […] nylon cell strainer (BD Falcon). The spheres retained in the sieve are washed with Hanks buffer and subsequently trypsinised to obtain a single cell suspension of cancer stem cells. The cell numbers were determined with a Coulter ZM counter and the cells were seeded into the appropriate low adhesion tissue culture ware for various studies.
AEL solutions in ethanol were diluted into supplemented mammocult medium generally at twice the desired final concentration. A volume equal to that in the wells was added to dilute the drug to the desired concentration in each well. Subsequently any further addition of drug to the wells, utilized AEL solution prepared at the desired concentration. […]

Data set [3] is described as follows: Generation of large acidic vacuoles. The data set is classed as cell-based. From the text: Autophagy 5, 835-84663). Furthermore an active endocytosis pathway was essential for GAEL activity (Samadder P, Byun H-S, Bittman R, Arthur G (2011) The endocytosis pathway is required for the cytotoxic effects of glycosylated antitumor ether lipids, Anticancer Res 31, 3809-3818). The generation of the large acidic vacuoles is a hallmark of this non-apoptosis death pathway induced by GAELs.

For another data set, the system named is BT-474 cancer stem cells. Kind of data set: BT-474 cancer stem cell spheroid formation. The data set is classed as cell-based, human. As to conditions: BT474 cancer stem cells, FIG. 1B. The protocol: FIG. 1. A. Effect of β-C-Gln (β-AC1) on BT-474 cancer stem cell spheroid formation. BT-474 cancer stem cells were obtained by staining BT474 cells for ALDH1 and sorting the stained from unstained cells by flow cytometry. The ALDH1 stained cells were grown in ultra-low adhesion 6-well plates in mammocult medium for 7 days. The spheroids were isolated and trypsinised to generate single cells. The cells were then seeded for 2 days in ultra-low adhesion 6-well plates, and subsequently incubated in the absence or presence of C-Gln for up to 12 days. The media was replenished after 6 days. B. Effect of β-O-Gln (β-AO1), α-O-Gln (α-AO1), or ET-18-OCH3 on BT-474 cancer stem cell spheroid formation.
Breast cancer stem cell enriched cell population was obtained by staining breast cancer cell lines BT-474 and JIMT-1 for aldehyde dehydrogenase 1 (ALDH1) using the assay kit from Stem Cell Technologies (Vancouver BC, Canada) according to the instructions of the manufacturer with the appropriate controls. […] The cell numbers were determined with a Coulter ZM counter and the cells were seeded into the appropriate low adhesion tissue culture ware for various studies. […]

Another data set deals with BT474 cancer stem cells. Kind of data set: Trypan blue dye exclusion viability of BT474 cancer stem cells. The data set is classed as cell-based, human. The conditions noted are these: BT474 cancer stem cells incubated with compound. The protocol: Trypan blue dye exclusion assay using the TC10 automated cell counter (BioRad) was also used for some studies.
We investigated the effects of the GAELs and the ALPET-18-OCH3 on the ability of the cancer stem cells to form tumorspheres. […] This was a concentration dependent event and at concentrations greater than 10 μM spheroid formation was completely disrupted.

The test system of data set [4] is JIMT-1 stem cell spheroids. Kind of data set: Morphology of JIMT-1 stem cell spheroids. The data set is classed as cell-based, human. As to conditions: 6 days, FIG. 7B. As for the experimental part:
FIG. 7. A. Effect of β-O-Gln, β-C-Gln or ET-18-OCH3 on morphology of JIMT-1 stem cell spheroids. B. Effect of β-O-Gln, α-O-Gln or ET-18-OCH3 on morphology of JIMT-1 stem cell spheroids. JIMT-1 cancer stem cells were grown for 7 days in ultra low adhesion 6 well plates. The tumorspheres formed were harvested, trypsinised and cell numbers were determined. Equal numbers of cells were dispersed into 48-well non-treated plates in mammocult medium and incubated in a CO2 incubator under static conditions. After spheres were formed, O-Gln, C-Gln or ET-18-OCH3 were added (0, 10, 20 and 30 μM) and incubation was for a total of 6 days with media supplementation after 3 days. Images for FIG. 7A were taken at day 0 and after 72 h following addition of the compounds. Images for FIG. 7B were taken after 6 days incubation with the compounds.
The above studies were repeated with JIMT-1 spheroids.

By viability is commonly meant a read-out of living cells in per cent, often relative to untreated cells. For `CCCCCCCCCCCCCCCCCCOCC(COP(=O)([O-])OCC[N+](C)(C)C)OC` (stereo not shown) [ET-18-OCH3, 1-O-octadecyl-2-O-methyl-glycerophosphocholine, reference compound], the viability at 30 µM in data set [1] (Homo sapiens, BT-474, 144 h, read-out: viability relative to controls) is approximately 45%. Besides, the “viability, % of controls” value in data set [2] (20 or 30 μM) is recorded as 30-40 % of controls. In addition, the cytotoxicity at 10 µM in data set [2] (Homo sapiens, JIMT-1, 144 h, 10 μM, read-out: loss of viability) was 40%.
In the case of `CCCCCCCCCCCCCCCCOC[C@H](CS[C@H]1O[C@H](CO)[C@@H](O)[C@H](O)[C@H]1N)OC` [α-AS2, 1-O-Hexadecyl-2-O-methyl-3-S-(2′-amino-2′-deoxy-α-D-glucopyranosyl)-sn-glycerol], in the data set with cancer cell lines, the “cytotoxicity compared to β-O-Gln (β-AO1)” value is “not as active as β-O-Gln”.
On to `CCCCCCCCCCCCCCCCOC[C@H](COC1O[C@H](CO)[C@H](O)[C@H](O)[C@H]1N)OC` (stereo partly drawn) [α-O-Galn, 1-O-Hexadecyl-2-O-methyl-3-O-(2′-amino-2′-deoxy-D-galactopyranosyl)-sn-glycerol], for which the spheroid formation entry in the data set with cancer stem cells is listed as “unable to form spheroids”. In addition, the “Viability (% 0f control)” value in data set [1] (10 μM) is “around 10 % 0f control”; in data set [1] (10 μM, listed as α-Galn) it was 9.64 % 0f control; in data set [1] (20 μM, listed as α-Galn) it was 0 % 0f control; in data set [1] (30 μM, listed as α-Galn), 0 % 0f control. Besides, the loss of viability result in data set [1] (20 or 30 μM) was “Complete loss of viability”. The “toxicity against the cancer stem cells” value in data set [1] is “quite toxic”. Also, in data set [3], the “generation of large acidic vacuoles” value was “generation of these vacuoles”.
As to `CCCCCCCCCCCCCCCCOC[C@H](COC1O[C@H](CO)[C@@H](O)[C@H](O)[C@H]1N)OC` (stereo partly drawn) [α-O-Gln, 1-O-Hexadecyl-2-O-methyl-3-O-(2′-amino-2′-deoxy-D-glucopyranosyl)-sn-glycerol], the spheroid formation entry in the data set on cancer stem cells and in the data set on BT-474 cancer stem cells was “unable to form spheroids” each time. In addition, in the data set on BT474 cancer stem cells, the “viability (trypan dye exclusion)” value is on record as “not viable”. Further, the loss of viability result is reported as “about 60%” in data set [1] (10 μM), “total loss of viability” in data set [1] (20 or 30 μM), 90% in data set [2] (10 μM) and “Complete loss of viability” in data set [2] (20 or 30 μM). Also, the spheroid integrity result in data set [4] is on record as “complete disintegration of the spheroids”. For the same compound, the “generation of large acidic vacuoles” value in data set [3] is on record as “generation of these vacuoles”. Also, the “cytotoxicity compared to β-O-Gln (β-AO1)” value in the data set with cancer cell lines was “superior activity”.
Turning to `CCCCCCCCCCCCCCCCOCC(CO[C@H]1O[C@H](CO)[C@@H](O)[C@H](O)[C@@H]1N)OC` (stereo partly drawn) [α-O-Mann], the “Viability (% 0f control)” value in data set [1] (10 μM) is recorded as 134.3 % 0f control; in data set [1] (20 μM) it was 58.84 % 0f control; in data set [1] (30 μM, listed as α-Mann), 25.9 % 0f control. For the same compound, the “toxicity against the cancer stem cells” value in data set [1] is on record as “not as active as α-O-Galn”.
On to `CCCCCCCCCCCCCCCCOC[C@H](CS[C@@H]1O[C@H](CO)[C@@H](O)[C@H](O)[C@H]1N)OC` [β-AS1, 1-O-Hexadecyl-2-O-methyl-3-S-(2′-amino-2′-deoxy-β-D-glucopyranosyl)-sn-glycerol], for which the “cytotoxicity compared to β-O-Gln (β-AO1)” value in the data set on cancer cell lines is “not as active as β-O-Gln”.
On to `CCCCCCCCCCCCCCCCOC[C@H](COC1O[C@H](CO)[C@H](O)[C@H](O)[C@H]1N)OC` (stereo partly drawn) [β-O-Galn, 1-O-Hexadecyl-2-O-methyl-3-O-(2′-amino-2′-deoxy-D-galactopyranosyl)-sn-glycerol], for which the “Viability (% 0f control)” value is recorded as 153.7 % 0f control in data set [1] (10 μM, listed as β-Galn); 48.0 % 0f control in data set [1] (20 μM, listed as β-Galn); 32.16 % 0f control in data set [1] (30 μM, listed as β-Galn). Also, in data set [1], the “toxicity against the cancer stem cells” value is listed as “not as active as α-O-Galn”.
